Data published in patent publication US7781591B2, “Substituted 3-cyanopyridines as protein kinase inhibitors” (Wyeth LLC, priority 2006, dated 2010).

target: T1, human PKCθ full length enzyme (Homo sapiens, UniProt Q04759); assay: PKCθ IMAP assay (fluorescence polarization); assay type: biochemical; settings: human PKCθ full length enzyme, IMAP; average value; read-out: IC50 PKCθ IMAP
T1 construct: human PKCθ full length enzyme (Panvera Cat# P2996); purchased Panvera P2996
Description: The reaction buffer was prepared by diluting the 5× stock reaction buffer and adding DTT to obtain a concentration of 3.0 mM. […] The final concentration of compound was 2× and 10% DMSO. DMSO was added to the rest of the master mix to increase the concentration to 10%. 10 μl of the master mix containing 10% DMSO was added to the rest of the wells on the plate except the 2nd column. 20 μl was transferred from the first column to the 2nd column. The compounds were serially diluted in 2:1 ratio starting from the 2nd column. A 2× ([…]) PKCθ solution was made in the reaction buffer. 10 μl of the PKCθ solution was added to every well to achieve these final concentrations: PKCθ—1 nM; ATP—6 μM; peptide—100 nM; DMSO—5%. Samples were incubated for 25 minutes at room temperature. The binding reagent was prepared by diluting the beads in 1× binding buffer to 800:1. 50 μl of the binding reagent was added to every well and incubated for 20 minutes. FP was measured using Envision2100 (PerkinElmer Life Sciences). Wells with no ATPs and wells with no enzymes were used as controls.

T1 sequence (Q04759 whole entry): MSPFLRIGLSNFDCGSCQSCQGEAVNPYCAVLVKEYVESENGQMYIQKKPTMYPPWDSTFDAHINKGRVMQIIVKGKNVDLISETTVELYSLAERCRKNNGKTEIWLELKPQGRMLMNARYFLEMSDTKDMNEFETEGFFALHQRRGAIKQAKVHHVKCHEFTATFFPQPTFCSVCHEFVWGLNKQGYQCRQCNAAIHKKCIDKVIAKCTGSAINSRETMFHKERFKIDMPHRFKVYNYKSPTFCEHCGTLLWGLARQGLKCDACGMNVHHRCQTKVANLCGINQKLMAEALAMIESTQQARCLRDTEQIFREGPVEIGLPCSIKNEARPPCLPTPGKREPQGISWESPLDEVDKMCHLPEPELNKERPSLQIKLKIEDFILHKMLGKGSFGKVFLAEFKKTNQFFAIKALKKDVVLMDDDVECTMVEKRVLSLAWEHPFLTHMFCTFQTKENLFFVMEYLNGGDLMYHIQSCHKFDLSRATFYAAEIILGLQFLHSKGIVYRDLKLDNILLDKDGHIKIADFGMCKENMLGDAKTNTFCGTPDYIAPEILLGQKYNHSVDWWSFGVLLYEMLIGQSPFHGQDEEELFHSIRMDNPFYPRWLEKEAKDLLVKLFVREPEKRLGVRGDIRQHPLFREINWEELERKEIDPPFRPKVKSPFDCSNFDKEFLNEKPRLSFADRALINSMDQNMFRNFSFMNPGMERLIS

Row | SMILES | IC50 [nM]
1 | Cc1c(Nc2c(C#N)cncc2-c2ccccc2N)ccc2[nH]ccc12 [Compound 573, 5-(2-aminophenyl)-4-[(4-methyl-1H-indol-5-yl)amino]nicotinonitrile] | 57
2 | N#Cc1cncc(-c2cccc(-c3ccc(C(=O)NCCN4CCCC4)cc3)c2)c1Nc1ccc2[nH]ccc2c1 [Compound 203, 3′-[5-cyano-4-(1H-indol-5-ylamino)pyridin-3-yl]-N-(2-pyrrolidin-1-ylethyl)biphenyl-4-carboxamide] | 290
3 | COc1ccc(-c2cncc(C#N)c2Nc2cccc3[nH]ccc23)cc1OCCCl [Compound 303, 5-[3-(2-chloroethoxy)-4-methoxyphenyl]-4-(1H-indol-4-ylamino)nicotinonitrile] | 40
4 | N#Cc1cncc(-c2ccncc2)c1Nc1ccc2[nH]ccc2c1 [Compound 261, 4-(1H-indol-5-ylamino)-3,4′-bipyridine-5-carbonitrile] | 80
5 | Cc1cc2[nH]ccc2cc1Nc1c(C#N)cncc1-c1ccc(OCCN2CCC(O)CC2)cc1 [Compound 505, 5-{4-[2-(4-hydroxypiperidin-1-yl)ethoxy]phenyl}-4-[(6-methyl-1H-indol-5-yl)amino]nicotinonitrile] | 76
6 | N#Cc1cncc(-c2cccc(OCCNCCO)c2)c1Nc1ccc2[nH]ccc2c1 [Compound 176, 5-(3-{2-[(2-hydroxyethyl)amino]ethoxy}phenyl)-4-(1H-indol-5-ylamino)nicotinonitrile] | 30
7 | COc1ccc(-c2cncc(C#N)c2Nc2ccc3ccccc3c2)cc1OC [Compound 112, 5-(3,4-dimethoxyphenyl)-4-(2-naphthylamino)nicotinonitrile] | 1130
8 | COc1ccc(-c2cncc(C#N)c2Nc2ccc3[nH]ccc3c2)cc1-c1ccc(C(=O)NC2CCCC2)cc1 [Compound 192, 5′-[5-cyano-4-(1H-indol-5-ylamino)pyridin-3-yl]-N-cyclopentyl-2′-methoxybiphenyl-4-carboxamide] | 280
9 | CCN1CCN(CCOc2cc(-c3cncc(C#N)c3Nc3ccc4[nH]ccc4c3)ccc2OC)CC1 [Compound 234, 5-{3-[2-(4-ethylpiperazin-1-yl)ethoxy]-4-methoxyphenyl}-4-(1H-indol-5-ylamino)nicotinonitrile] | 190
10 | Cc1c(Nc2c(C#N)cncc2-c2ccc(OCCN3CCN(C)CC3)cc2)cc(Cl)c2[nH]ccc12 [Compound 535, 4-[(7-chloro-4-methyl-1H-indol-5-yl)amino]-5-{4-[2-(4-methylpiperazin-1-yl)ethoxy]phenyl}nicotinonitrile] | 38
11 | CN(C)c1ccc(-c2cncc(C#N)c2Nc2cccnc2)cc1 [Compound 291, 5-[4-(dimethylamino)phenyl]-4-(pyridin-3-ylamino)nicotinonitrile] | 4860
12 | COc1ccc(-c2cncc(C#N)c2Nc2cccc3[nH]ccc23)cc1OCCN(C)C [Compound 301, 5-{3-[2-(dimethylamino)ethoxy]-4-methoxyphenyl}-4-(1H-indol-4-ylamino)nicotinonitrile] | 50
13 | COc1cccc(Cl)c1-c1cncc(C#N)c1Nc1ccc2[nH]ccc2c1C [Compound 375, 5-(2-chloro-6-methoxyphenyl)-4-[(4-methyl-1H-indol-5-yl)amino]nicotinonitrile] | 150
14 | COc1ccc(-c2cncc(C#N)c2NC[C@H]2CC[C@H](N)CC2)cc1OC [Compound 442, 4-{[(trans-4-aminocyclohexyl)methyl]amino}-5-(3,4-dimethoxyphenyl)nicotinonitrile] | 1770
15 | N#Cc1cncc(-c2cccc(-c3ccc(C(=O)N4CCCC4)cc3)c2)c1Nc1ccc2[nH]ccc2c1 [Compound 205, 4-(1H-indol-5-ylamino)-5-[4′-(pyrrolidin-1-ylcarbonyl)biphenyl-3-yl]nicotinonitrile] | 510
16 | COc1ccc(-c2cncc(C#N)c2NCC2CCNCC2)cc1OC [Compound 445, 5-(3,4-dimethoxyphenyl)-4-[(piperidin-4-ylmethyl)amino]nicotinonitrile] | 20400
17 | Cc1ccc(S(=O)(=O)n2cc(-c3cncc(C#N)c3Nc3cccc4[nH]ccc34)c3ccccc32)cc1 [Compound 320, 4-(1H-indol-4-ylamino)-5-{1-[(4-methylphenyl)sulfonyl]-1H-indol-3-yl}nicotinonitrile] | 30

Stronger by IC50, values ahead:

Row | IC50 [nM] | SMILES
18 | 27 | Cc1c(Nc2c(C#N)cncc2-c2ccc(NC(=O)OCc3ccccc3)c(F)c2)ccc2[nH]ccc12 [Compound 527, benzyl (4-{5-cyano-4-[(4-methyl-1H-indol-5-yl)amino]pyridin-3-yl}-2-fluorophenyl)carbamate]
19 | 24 | Cc1c(Nc2c(C#N)cncc2-c2ccc(OCCCN3CCOCC3)cc2)ccc2[nH]ccc12 [Compound 473, 4-[(4-methyl-1H-indol-5-yl)amino]-5-[4-(3-morpholin-4-ylpropoxy)phenyl]nicotinonitrile]
20 | 22 | Cc1c(Nc2c(C#N)cncc2-c2ccoc2)ccc2[nH]ccc12 [Compound 563, 5-(3-furyl)-4-[(4-methyl-1H-indol-5-yl)amino]nicotinonitrile]
21 | 20 | N#Cc1cncc(-c2cccc(CO)c2)c1Nc1cccc2[nH]ccc12 [Compound 270, 5-[3-(hydroxymethyl)phenyl]-4-(1H-indol-4-ylamino)nicotinonitrile]
22 | 20 | CN1CCN(CCOc2cccc(-c3cncc(C#N)c3Nc3cccc4[nH]ccc34)c2)CC1 [Compound 168, 4-(1H-indol-4-ylamino)-5-{3-[2-(4-methylpiperazin-1-yl)ethoxy]phenyl}nicotinonitrile]
23 | 19 | Cc1c(Nc2c(C#N)cncc2-c2ccc(OCCCN3CCN(C)CC3)cc2)ccc2[nH]ccc12 [Compound 472, 4-[(4-methyl-1H-indol-5-yl)amino]-5-{4-[3-(4-methylpiperazin-1-yl)propoxy]phenyl}nicotinonitrile]
24 | 17 | Cc1c(Nc2c(C#N)cncc2-c2oc3ccccc3c2C)ccc2[nH]ccc12 [Compound 466, 5-(3-methyl-1-benzofuran-2-yl)-4-[(4-methyl-1H-indol-5-yl)amino]nicotinonitrile]
25 | 14 | Cc1c(Nc2c(C#N)cncc2-c2ccc(OCCN3CCN(CCO)CC3)cc2)ccc2[nH]ccc12 [Compound 427, 5-(4-{2-[4-(2-hydroxyethyl)piperazin-1-yl]ethoxy}phenyl)-4-[(4-methyl-1H-indol-5-yl)amino]nicotinonitrile]
26 | 13 | Cc1c(Nc2c(C#N)cncc2-c2cc3cc(CN4CCOCC4)ccc3o2)ccc2[nH]ccc12 [Compound 388, 4-[(4-methyl-1H-indol-5-yl)amino]-5-[5-(morpholin-4-ylmethyl)-1-benzofuran-2-yl]nicotinonitrile]
27 | 8 | Cc1c(Nc2c(C#N)cncc2-c2ccc(OCCN3CCC(CO)CC3)cc2)ccc2[nH]ccc12 [Compound 422, 5-(4-{2-[4-(hydroxymethyl)piperidin-1-yl]ethoxy}phenyl)-4-[(4-methyl-1H-indol-5-yl)amino]nicotinonitrile]
28 | 7 | Cc1c(Nc2c(C#N)cncc2-c2cccc(CN(C)C)c2)ccc2[nH]ccc12 [Compound 457, 5-{3-[(dimethylamino)methyl]phenyl}-4-[(4-methyl-1H-indol-5-yl)amino]nicotinonitrile]
29 | 5 | Cc1c(Nc2c(C#N)cncc2-c2cc3cc(CN4CCC(CO)CC4)ccc3o2)ccc2[nH]ccc12 [Compound 392, 5-(5-{[4-(hydroxymethyl)piperidin-1-yl]methyl}-1-benzofuran-2-yl)-4-[(4-methyl-1H-indol-5-yl)amino]nicotinonitrile]
30 | 5 | Cc1c(Nc2c(C#N)cncc2-c2ccc(CN3CCN(C)CC3)cc2)ccc2[nH]ccc12 [Compound 449, 4-[(4-methyl-1H-indol-5-yl)amino]-5-{4-[(4-methylpiperazin-1-yl)methyl]phenyl}nicotinonitrile]
31 | 4 | Cc1c(Nc2c(C#N)cncc2-c2ccc(CN3CCC(N4CCCC4)CC3)o2)ccc2[nH]ccc12 [Compound 404, 4-[(4-methyl-1H-indol-5-yl)amino]-5-{5-[(4-pyrrolidin-1-ylpiperidin-1-yl)methyl]-2-furyl}nicotinonitrile]
32 | 4 | N#Cc1cncc(-c2cc3cc(CN4CCCC4)ccc3s2)c1Nc1cccc2[nH]ccc12 [Compound 280, 4-(1H-indol-4-ylamino)-5-[5-(pyrrolidin-1-ylmethyl)-1-benzothien-2-yl]nicotinonitrile]
33 | 4 | Cc1c(Nc2c(C#N)cncc2-c2ccc(OCCN3CCCC3)cc2)ccc2[nH]ccc12 [Compound 418, 4-[(4-methyl-1H-indol-5-yl)amino]-5-[4-(2-pyrrolidin-1-ylethoxy)phenyl]nicotinonitrile]
34 | 4 | Cc1c(Nc2c(C#N)cncc2-c2ccc(OCCCl)cc2)ccc2[nH]ccc12 [Compound 348, 5-[4-(2-chloroethoxy)phenyl]-4-[(4-methyl-1H-indol-5-yl)amino]nicotinonitrile]
35 | 2 | Cc1c(Nc2c(C#N)cncc2-c2ccc(CN3CCN(C(C)C)CC3)o2)ccc2[nH]ccc12 [Compound 437, 5-{5-[(4-isopropylpiperazin-1-yl)methyl]-2-furyl}-4-[(4-methyl-1H-indol-5-yl)amino]nicotinonitrile]
36 | 2 | N#Cc1cncc(-c2cc3cc(CNCCCO)ccc3s2)c1Nc1cccc2[nH]ccc12 [Compound 275, 5-(5-{[(3-hydroxypropyl)amino]methyl}-1-benzothien-2-yl)-4-(1H-indol-4-ylamino)nicotinonitrile]
